Tested on: rats
Test: forced swimming test in rats
Settings: series Pramipexole + amitriptyline
Text: The test can be carried out as follows for each of the combinations of active substances tested.

| Structure (SMILES) | Immobility time |
| --- | --- |
| CN(C)CCC=C1c2ccccc2CCc2ccccc21 [Amitriptyline] | 174.6 ± 9.2 s |
| CCCNC1CCc2nc(N)sc2C1.Cl.Cl (centres unmarked) [Pramipexole, 2-amino-6-n-propylamino4,5,6,7-tetrahydrobenzo-thiazole-dihydrochloride] | 164.3 ± 9.8 s |
